Measured values as given in the supplement of paper PMC10307832.

Tests used:
Test in all cases: relative viability (nuclei count vs DMSO), 5 days (fraction); higher = more cells survive
[1] = compound: COC1=CC=C(C=C1)CN2C=CC3=C2C=C(C=C3)C(=O)NO + Nc1ncn([C@H]2C[C@H](O)[C@@H](CO)O2)c(=O)n1 [Decitabine] (partner 2 µM)
In short: (§1)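 A single step with final 0.05% Triton X-100, 1% formaldehyde and 1 ug/ml Hoechst fixed the cells and stained nuclei 5 days after treatment. Lung cancer cell lines in 1536-well plates had been treated by pin tool the day after seeding with one drug alone or a fixed anchor-drug dose plus five library-drug doses (not always all listed) in √10 steps, and nuclei were counted on 4× images. Relative viability is the ratio of nuclei in treated wells to nuclei in vehicle wells, taken as the median of duplicate plates.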

[2] = compound: COC1=CC=C(C=C1)CN2C=CC3=C2C=C(C=C3)C(=O)NO + CC(C)C[C@H](NC(=O)[C@H](Cc1ccccc1)NC(=O)c1cnccn1)B(O)O [Bortezomib] (partner 0.002 µM)
In short: as §1

[3] = compound: C[C@]1(c2nc3c(C(N)=O)cccc3[nH]2)CCCN1 [Veliparib] + CCNC(=O)c1noc(-c2cc(C(C)C)c(O)cc2O)c1-c1ccc(CN2CCOCC2)cc1 [Luminespib] (partner 0.01 µM)
In short: as §1

[4] = compound: C[C@]1(c2nc3c(C(N)=O)cccc3[nH]2)CCCN1 [Veliparib] + Cc1nc(Nc2ncc(C(=O)Nc3c(C)cccc3Cl)s2)cc(N2CCN(CCO)CC2)n1 [Dasatinib] (partner 0.075 µM)
In short: as §1

Cell Line: HCC-44
- relative viability ([1]; first compound 0.08 µM): 0.943
- relative viability ([1]; first compound 0.253 µM): 0.992
- relative viability ([1]; first compound 0.8 µM): 0.974
- relative viability ([1]; first compound 2.53 µM): 0.988
- relative viability ([1]; first compound 8 µM): 0.881
- relative viability ([2]; first compound 0.08 µM): 0.845
- relative viability ([2]; first compound 0.253 µM): 0.912
- relative viability ([2]; first compound 0.8 µM): 0.897
- relative viability ([2]; first compound 2.53 µM): 0.914
- relative viability ([2]; first compound 8 µM): 0.907
- relative viability ([3]; first compound 0.02 µM): 1.09
- relative viability ([3]; first compound 0.2 µM): 1.12
- relative viability ([3]; first compound 0.6325 µM): 0.917
- relative viability ([3]; first compound 2 µM): 0.985

Cell Line: HCC-78
- relative viability ([1]; first compound 0.08 µM): 0.768
- relative viability ([1]; first compound 0.253 µM): 0.643
- relative viability ([1]; first compound 0.8 µM): 0.74
- relative viability ([1]; first compound 2.53 µM): 0.702
- relative viability ([1]; first compound 8 µM): 0.521
- relative viability ([2]; first compound 0.08 µM): 0.474
- relative viability ([2]; first compound 0.253 µM): 0.49
- relative viability ([2]; first compound 0.8 µM): 0.437
- relative viability ([2]; first compound 2.53 µM): 0.543
- relative viability ([2]; first compound 8 µM): 0.51
- relative viability ([4]; first compound 0.02 µM): 0.438
- relative viability ([4]; first compound 0.06325 µM): 0.337
- relative viability ([4]; first compound 0.2 µM): 0.444
- relative viability ([4]; first compound 0.6325 µM): 0.483
- relative viability ([4]; first compound 2 µM): 0.257

Cell Line: HCC-366
- relative viability ([1]; first compound 0.08 µM): 0.231
- relative viability ([1]; first compound 0.253 µM): 0.365
- relative viability ([1]; first compound 0.8 µM): 0.351
- relative viability ([1]; first compound 2.53 µM): 0.337
- relative viability ([1]; first compound 8 µM): 0.264
- relative viability ([2]; first compound 0.253 µM): 1.12
- relative viability ([2]; first compound 0.8 µM): 1.03
- relative viability ([2]; first compound 2.53 µM): 1.02
- relative viability ([2]; first compound 8 µM): 0.934
- relative viability ([4]; first compound 0.02 µM): 0.524
- relative viability ([4]; first compound 0.06325 µM): 0.514
- relative viability ([4]; first compound 0.2 µM): 0.582
- relative viability ([4]; first compound 0.6325 µM): 0.572
- relative viability ([4]; first compound 2 µM): 0.588

Cell Line: HCC-827
- relative viability ([1]; first compound 0.08 µM): 0.292
- relative viability ([1]; first compound 0.253 µM): 0.271
- relative viability ([1]; first compound 0.8 µM): 0.356
- relative viability ([1]; first compound 2.53 µM): 0.287
- relative viability ([1]; first compound 8 µM): 0.308
- relative viability ([2]; first compound 0.08 µM): 1.01
- relative viability ([2]; first compound 0.253 µM): 0.929
- relative viability ([2]; first compound 0.8 µM): 1.05
- relative viability ([2]; first compound 2.53 µM): 0.896
- relative viability ([2]; first compound 8 µM): 1.04
- relative viability ([3]; first compound 0.02 µM): 0.468
- relative viability ([3]; first compound 0.06325 µM): 0.692
- relative viability ([3]; first compound 0.2 µM): 0.654
- relative viability ([3]; first compound 0.6325 µM): 0.493
- relative viability ([3]; first compound 2 µM): 0.588
- relative viability ([4]; first compound 0.02 µM): 0.362
- relative viability ([4]; first compound 0.06325 µM): 0.302
- relative viability ([4]; first compound 0.2 µM): 0.266
- relative viability ([4]; first compound 0.6325 µM): 0.205
- relative viability ([4]; first compound 2 µM): 0.364

Cell Line: IA-LM
- relative viability ([2]; first compound 0.08 µM): 0.857
- relative viability ([2]; first compound 0.253 µM): 0.69
- relative viability ([2]; first compound 0.8 µM): 0.942
- relative viability ([2]; first compound 2.53 µM): 0.769
- relative viability ([2]; first compound 8 µM): 0.726

Cell Line: LK-2
- relative viability ([1]; first compound 0.253 µM): 0.303
- relative viability ([1]; first compound 0.8 µM): 0.295
- relative viability ([1]; first compound 2.53 µM): 0.296
- relative viability ([1]; first compound 8 µM): 0.224
- relative viability ([3]; first compound 0.06325 µM): 0.184
- relative viability ([3]; first compound 0.2 µM): 0.202
- relative viability ([3]; first compound 0.6325 µM): 0.19
- relative viability ([3]; first compound 2 µM): 0.193
- relative viability ([4]; first compound 0.06325 µM): 0.266
- relative viability ([4]; first compound 0.2 µM): 0.258
- relative viability ([4]; first compound 0.6325 µM): 0.325
- relative viability ([4]; first compound 2 µM): 0.291

Cell Line: NCI-H358
- relative viability ([1]; first compound 0.253 µM): 0.221
- relative viability ([1]; first compound 0.8 µM): 0.292
- relative viability ([1]; first compound 2.53 µM): 0.197
- relative viability ([1]; first compound 8 µM): 0.179
- relative viability ([3]; first compound 0.02 µM): 0.308
- relative viability ([3]; first compound 0.06325 µM): 0.975
- relative viability ([3]; first compound 0.2 µM): 0.248
- relative viability ([3]; first compound 0.6325 µM): 0.246
- relative viability ([3]; first compound 2 µM): 0.548
- relative viability ([4]; first compound 0.02 µM): 0.0991
- relative viability ([4]; first compound 0.06325 µM): 0.156
- relative viability ([4]; first compound 0.2 µM): 0.169
- relative viability ([4]; first compound 0.6325 µM): 0.131
- relative viability ([4]; first compound 2 µM): 0.152

Cell Line: NCI-H522
- relative viability ([1]; first compound 0.253 µM): 0.649
- relative viability ([1]; first compound 0.8 µM): 0.606
- relative viability ([1]; first compound 2.53 µM): 0.63
- relative viability ([1]; first compound 8 µM): 0.765
- relative viability ([3]; first compound 0.02 µM): 1.18
- relative viability ([3]; first compound 0.06325 µM): 1.21
- relative viability ([3]; first compound 0.2 µM): 1.16
- relative viability ([3]; first compound 0.6325 µM): 1.18
- relative viability ([3]; first compound 2 µM): 1.25
- relative viability ([4]; first compound 0.02 µM): 0.887
- relative viability ([4]; first compound 0.06325 µM): 0.904
- relative viability ([4]; first compound 0.2 µM): 0.963
- relative viability ([4]; first compound 0.6325 µM): 0.831
- relative viability ([4]; first compound 2 µM): 0.812

Cell Line: NCI-H1299
- relative viability ([2]; first compound 0.08 µM): 0.994
- relative viability ([2]; first compound 0.253 µM): 1.06
- relative viability ([2]; first compound 0.8 µM): 1.04
- relative viability ([2]; first compound 2.53 µM): 1.03
- relative viability ([2]; first compound 8 µM): 1.03

Cell Line: NCI-H1395
- relative viability ([1]; first compound 0.253 µM): 0.701
- relative viability ([1]; first compound 0.8 µM): 0.758
- relative viability ([1]; first compound 2.53 µM): 0.842
- relative viability ([1]; first compound 8 µM): 0.618
- relative viability ([3]; first compound 0.02 µM): 0.586
- relative viability ([3]; first compound 0.06325 µM): 0.624
- relative viability ([3]; first compound 0.2 µM): 0.648
- relative viability ([3]; first compound 0.6325 µM): 0.659
- relative viability ([3]; first compound 2 µM): 0.542
- relative viability ([4]; first compound 0.02 µM): 0.379
- relative viability ([4]; first compound 0.06325 µM): 0.381
- relative viability ([4]; first compound 0.2 µM): 0.46
- relative viability ([4]; first compound 0.6325 µM): 0.414
- relative viability ([4]; first compound 2 µM): 0.437
